Data from patent US11932620B1, “Ethyl 2-[9-(6-flouro-2-hydroxyquinolin-3-yl)-1,8-dioxo-3,4,9,10-tetrahydroacridine-10-yl]-acetate as an antimicrobial compound” (KING FAISAL UNIVERSITY, priority 2023, dated 2024).

Tests used:
Type in all cases: cell-based
Conditions in all cases: after 10, 20, 40 and 60 minutes at all dilutions 1:100, 1:200, 1:400, 1:800
[1] = test system: Candida albicans; test: Antimicrobial screening by agar dilution, Candida albicans
Protocol: (§1) The antibacterial properties of the synthesized compound ethyl 2-[9-(6-fluoro-2-hydroxyquinolin-3-yl)-1,8-dioxo-3,4,9,10-tetrahydroacridine-10-yl]-acetate were studied by the method of agar dilution. Test solutions of each compound was prepared in concentration of 1% using dimethylformamide as a solvent then they are diluted in physiological solution to obtain the final experimental dilutions 1:100, 1:200, 1:400, 1:800. The effect of these substances are compared with furacillin in a controllable study. The testing microbes used were gram positive bacteria Staphylococcus aureus, gram negative bacteria Pseudomonas aeruginosa and Escherichia coli and Candida albicans fungus. The experiments used for this survey were meat-pentonlu agar (EPA) for cultivation of bacteria and Saburo environment for the fungus. Each experiment used 1 mL of test solution on each plate […]. Two drops of emulsified with microbes feel were added. All experimental samples were taken from the agar after 10, 20, 40, 60 minutes in the environment on the basis of Patrk planted. The bacteria were cultivated at a temperature of 37° C. for 1 day and the mushroom was kept in a thermostat for 2 hours at a temperature of 28° C. Then results were checked. Results of the control (Furacilin) and the antimicrobial activity for the synthesized compounds are listed in are listed in Table 1.

[2] = test system: Staphylococcus aureus; test: Antimicrobial screening by agar dilution, Staphylococcus aureus
Protocol: as §1

[3] = test system: Pseudomonas aeruginosa; test: Antimicrobial screening by agar dilution, Pseudomonas aeruginosa
Protocol: as §1

[4] = test system: Escherichia coli; test: Antimicrobial screening by agar dilution, Escherichia coli
Protocol: as §1

Measured: inhibition activity (in words)

CCOC(=O)CN1C2=C(C(=O)CCC2)C(c2cc3cc(F)ccc3nc2O)C2=C1CCCC2=O [ethyl 2-[9-(6-fluoro-2-hydroxyquinolin-3-yl)-1,8-dioxo-3,4,9,10-tetrahydroacridine-10-yl]-acetate]
highest inhibition activity: [1] | [2] | [3] | [4]
